Results from paper doi:10.1101/2024.03.07.583918v2 (biorxiv, 2024).

Molecular target: T1, CheR (Pectobacterium atrosepticum, UniProt Q6D6I8)
T1 sequence (Q6D6I8 1-290): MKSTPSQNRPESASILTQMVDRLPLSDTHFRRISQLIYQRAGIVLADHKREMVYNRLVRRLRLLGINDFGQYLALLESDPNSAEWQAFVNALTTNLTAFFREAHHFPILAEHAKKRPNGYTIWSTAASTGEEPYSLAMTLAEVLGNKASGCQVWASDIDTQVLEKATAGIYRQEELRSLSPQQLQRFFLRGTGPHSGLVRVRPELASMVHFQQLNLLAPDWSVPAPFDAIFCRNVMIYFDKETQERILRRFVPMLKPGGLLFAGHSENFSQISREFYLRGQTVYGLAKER
Test: isothermal titration calorimetry
Type: binding

`C[S+](CC[C@H](N)C(=O)O)C[C@H]1O[C@@H](n2cnc3c(N)ncnc32)[C@H](O)[C@@H]1O` (some centres unmarked) [SAM] was tested, and the Kd was 140 ± 20 µM.

In the case of `Nc1ncnc2c1ncn2[C@@H]1O[C@H](CSCC[C@H](N)C(=O)O)[C@@H](O)[C@H]1O` [SAH], the Kd is reported as 0.48 ± 0.02 µM.
